Results reported in patent US20230063238A1, “IMMUNOMODULATORS” (Bristol-Myers Squibb Company, priority 2020, published 2023).
Starred links: 1 amine or outer side, 2 acyl side, 3 side chain; linkers in the order of their positions; H or OH if unused. Positions of bridges follow the written chain, without caps; N, C: chain ends. Non-standard residues stand in square brackets, D forms with d. Residues, ends and D or L forms follow the SMILES beside them. *: point of attachment. Trp(1-CH2CO2Me) = COC(=O)Cn1cc(C[C@H](N)C(=O)O)c2ccccc21; Trp(1-CH2COOH) = N[C@@H](Cc1cn(CC(=O)O)c2ccccc12)C(=O)O; Hyp = O=C(O)[C@@H]1C[C@@H](O)CN1; X8 = O=C(Nc1cc(F)cc(F)c1)C(=O)*; X5 = O=C(C(=O)*)N1CCc2ccccc2C1; Oxalyl = O=C(C(=O)[*:2])[*:1]; X3 = O=C(NCc1ccc(F)cc1)C(=O)*; NMeNle = CCCC[C@H](NC)C(=O)O; X10 = Cc1cc(NC(=O)C(=O)*)no1; X2 = CCc1nnc(NC(=O)C(=O)*)s1; X4 = O=C(Nc1cccc(F)c1)C(=O)*; X6 = CN1CCN(C(=O)C(=O)*)CC1; X1 = O=C(Oc1ccccc1)C(=O)*; NMeA = CN[C@@H](C)C(=O)O; Dab = NCC[C@H](N)C(=O)O; Dap = NC[C@H](N)C(=O)O; Oxamoyl = NC(=O)C(=O)*; X7 = CN(C)C(=O)C(=O)*

Molecular target: T1, PD-1/PD-L1 (Homo sapiens, UniProt Q9NZQ7)
T1 construct: TVMV protease site linker (C); made in house; host or cells: HEK293T cells
T1 sequence (Q9NZQ7 18-239): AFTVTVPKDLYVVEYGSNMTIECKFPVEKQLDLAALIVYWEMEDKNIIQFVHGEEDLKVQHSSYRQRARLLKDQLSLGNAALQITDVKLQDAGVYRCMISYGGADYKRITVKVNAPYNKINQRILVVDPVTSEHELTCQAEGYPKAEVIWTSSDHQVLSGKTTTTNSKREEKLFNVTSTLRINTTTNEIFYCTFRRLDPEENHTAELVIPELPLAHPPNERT
Assay: PD-1/PD-L1 Homogenous Time-Resolved Fluorescence (HTRF) binding assay
Conditions: PD-L1-His 10 nM final, PD-1-Ig 20 nM final; inhibitors pre-incubated with PD-L1-His for 15 m
Excerpt: The ability of the compounds of formula (I) to bind to PD-L1 was investigated using a PD-1/PD-L1 Homogenous Time-Resolved Fluorescence (HTRF) binding assay.
Homogenous Time-Resolved Fluorescence (HTRF) Binding Assay
The interaction of PD-1 and PD-L1 can be assessed using soluble, purified preparations of the extracellular domains of the two proteins. The PD-1 and PD-L1 protein extracellular domains were expressed as fusion proteins with detection tags, for PD-1, the tag was the Fc portion of Immunoglobulin (PD-1-Ig) and for PD-L1 it was the 6 histidine motif (PD-L1-His). All binding studies were performed in an HTRF assay buffer consisting of dPBS supplemented with 0.1% […] bovine serum albumin and 0.05% (v/v) Tween-20. For the h/PD-L1-His binding assay, inhibitors were pre-incubated with PD-L1-His (10 nM final) for 15 m in 4 μl of assay buffer, followed by addition of PD-1-Ig (20 nM final) in 1 μl of assay buffer and further incubation for 15m. HTRF detection was achieved using europium crypate-labeled anti-Ig (1 nM final) and allophycocyanin (APC) labeled anti-His (20 nM final). Antibodies were diluted in HTRF detection buffer and 5 μl was dispensed on top of the binding reaction. The reaction mixture was allowed to equilibrate for 30 minutes and the resulting signal (665 nm/620 nm ratio) was obtained using an EnVision fluorometer. Additional binding assays were established between the human proteins PD-1-Ig/PD-L2-His (20 & 5 nM, respectively) and CD80-His/PD-L1-Ig (100 & 10 nM, respectively).
Recombinant Proteins: Human PD-1 (25-167) with a C-terminal human Fc domain of immunoglobulin G (Ig) epitope tag [hPD-1 (25-167)-3S-IG] and human PD-L1 (18-239) with a C-terminal His epitope tag [hPD-L1(18-239)-TVMV-His] were expressed in HEK293T cells and purified sequentially by ProteinA affinity chromatography and size exclusion chromatography. Human PD-L2-His and CD80-His was obtained through commercial sources.
Table 1 lists the IC50 values for representative examples of this disclosure measured in the PD-1/PD-L1 Homogenous Time-Resolved Fluorescence (HTRF) binding assay.

| SMILES | IC50 [nM] |
| --- | --- |
| CCCC[C@H]1C(=O)N(C)[C@@H](CCCC)C(=O)N[C@@H](CC(C)C)C(=O)N[C@H](C(=O)NCC(N)=O)CSCC(=O)N[C@@H](Cc2ccc(O)cc2)C(=O)N(C)[C@@H](C)C(=O)N[C@@H](CC(N)=O)C(=O)N2CCC[C@H]2C(=O)N[C@@H](CNC(=O)C(=O)Oc2ccccc2)C(=O)N[C@@H](CC(C)C)C(=O)N2C[C@H](O)C[C@H]2C(=O)N[C@@H](Cc2c[nH]c3ccccc23)C(=O)N[C@@H](CCNC(=O)C(=O)Oc2ccccc2)C(=O)N[C@@H](Cc2cn(CC(=O)O)c3ccccc23)C(=O)N1C [Compound 1001] ({CH2CO}-Y[NMeA]NP[Dap](X1)L[Hyp]W[Dab](X1)[Trp(1-CH2COOH)][NMeNle][NMeNle]LCG-NH2; thioether N-14) | 5.4 |
| CCCC[C@H]1C(=O)N(C)[C@@H](CCCC)C(=O)N[C@@H](CC(C)C)C(=O)N[C@H](C(=O)NCC(N)=O)CSCC(=O)N[C@@H](Cc2ccc(O)cc2)C(=O)N(C)[C@@H](C)C(=O)N[C@@H](CC(N)=O)C(=O)N2CCC[C@H]2C(=O)N[C@@H](CNC(=O)C(=O)N2CCc3ccccc3C2)C(=O)N[C@@H](CC(C)C)C(=O)N2C[C@H](O)C[C@H]2C(=O)N[C@@H](Cc2c[nH]c3ccccc23)C(=O)N[C@@H](CCNC(=O)C(=O)N2CCc3ccccc3C2)C(=O)N[C@@H](Cc2cn(CC(=O)OC)c3ccccc23)C(=O)N1C [Compound 2001] ({CH2CO}-Y[NMeA]NP[Dap](X5)L[Hyp]W[Dab](X5)[Trp(1-CH2CO2Me)][NMeNle][NMeNle]LCG-NH2; thioether N-14) | 3.4 |
| CCCC[C@H]1C(=O)N(C)[C@@H](CCCC)C(=O)N[C@@H](CC(C)C)C(=O)N[C@H](C(=O)NCC(N)=O)CSCC(=O)N[C@@H](Cc2ccc(O)cc2)C(=O)N(C)[C@@H](C)C(=O)N[C@@H](CC(N)=O)C(=O)N2CCC[C@H]2C(=O)N[C@@H](CNC(=O)C(=O)Nc2cc(F)cc(F)c2)C(=O)N[C@@H](CC(C)C)C(=O)N2C[C@H](O)C[C@H]2C(=O)N[C@@H](Cc2c[nH]c3ccccc23)C(=O)N[C@@H](CCNC(=O)C(=O)Nc2cc(F)cc(F)c2)C(=O)N[C@@H](Cc2cn(CC(=O)OC)c3ccccc23)C(=O)N1C [Compound 2002] ({CH2CO}-Y[NMeA]NP[Dap](X8)L[Hyp]W[Dab](X8)[Trp(1-CH2CO2Me)][NMeNle][NMeNle]LCG-NH2; thioether N-14) | 350 |
| CCCC[C@H]1C(=O)N(C)[C@@H](CCCC)C(=O)N[C@@H](CC(C)C)C(=O)N[C@H](C(=O)NCC(N)=O)CSCC(=O)N[C@@H](Cc2ccc(O)cc2)C(=O)N(C)[C@@H](C)C(=O)N[C@@H](CC(N)=O)C(=O)N2CCC[C@H]2C(=O)N[C@@H](CNC(=O)C(=O)Nc2cccc(F)c2)C(=O)N[C@@H](CC(C)C)C(=O)N2C[C@H](O)C[C@H]2C(=O)N[C@@H](Cc2c[nH]c3ccccc23)C(=O)N[C@@H](CCNC(=O)C(=O)Nc2cccc(F)c2)C(=O)N[C@@H](Cc2cn(CC(=O)OC)c3ccccc23)C(=O)N1C [Compound 2003] ({CH2CO}-Y[NMeA]NP[Dap](X4)L[Hyp]W[Dab](X4)[Trp(1-CH2CO2Me)][NMeNle][NMeNle]LCG-NH2; thioether N-14) | 370 |
| CCCC[C@H]1C(=O)N(C)[C@@H](CCCC)C(=O)N[C@@H](CC(C)C)C(=O)N[C@H](C(=O)NCC(N)=O)CSCC(=O)N[C@@H](Cc2ccc(O)cc2)C(=O)N(C)[C@@H](C)C(=O)N[C@@H](CC(N)=O)C(=O)N2CCC[C@H]2C(=O)N[C@@H](CNC(=O)C(=O)N2CCN(C)CC2)C(=O)N[C@@H](CC(C)C)C(=O)N2C[C@H](O)C[C@H]2C(=O)N[C@@H](Cc2c[nH]c3ccccc23)C(=O)N[C@@H](CCNC(=O)C(=O)N2CCN(C)CC2)C(=O)N[C@@H](Cc2cn(CC(=O)OC)c3ccccc23)C(=O)N1C [Compound 2007] ({CH2CO}-Y[NMeA]NP[Dap](X6)L[Hyp]W[Dab](X6)[Trp(1-CH2CO2Me)][NMeNle][NMeNle]LCG-NH2; thioether N-14) | 9.1 |

The next molecules have a lower IC50 than those just listed; values first:

| IC50 [nM] | SMILES |
| --- | --- |
| 3.2 | CCCC[C@H]1C(=O)N(C)[C@@H](CCCC)C(=O)N[C@@H](CC(C)C)C(=O)N[C@H](C(=O)NCC(N)=O)CSCC(=O)N[C@@H](Cc2ccc(O)cc2)C(=O)N(C)[C@@H](C)C(=O)N[C@@H](CC(N)=O)C(=O)N2CCC[C@H]2C(=O)N[C@@H](CNC(=O)C(=O)Nc2nnc(CC)s2)C(=O)N[C@@H](CC(C)C)C(=O)N2C[C@H](O)C[C@H]2C(=O)N[C@@H](Cc2c[nH]c3ccccc23)C(=O)N[C@@H](CCNC(=O)C(=O)Nc2nnc(CC)s2)C(=O)N[C@@H](Cc2cn(CC(=O)OC)c3ccccc23)C(=O)N1C [Compound 2008] ({CH2CO}-Y[NMeA]NP[Dap](X2)L[Hyp]W[Dab](X2)[Trp(1-CH2CO2Me)][NMeNle][NMeNle]LCG-NH2; thioether N-14) |
| 3.1 | CCCC[C@H]1C(=O)N(C)[C@@H](CCCC)C(=O)N[C@@H](CC(C)C)C(=O)N[C@H](C(=O)NCC(N)=O)CSCC(=O)N[C@@H](Cc2ccc(O)cc2)C(=O)N(C)[C@@H](C)C(=O)N[C@@H](CC(N)=O)C(=O)N2CCC[C@H]2C(=O)N[C@@H](CNC(=O)C(=O)O)C(=O)N[C@@H](CC(C)C)C(=O)N2C[C@H](O)C[C@H]2C(=O)N[C@@H](Cc2c[nH]c3ccccc23)C(=O)N[C@@H](CCN)C(=O)N[C@@H](Cc2cn(CC(=O)OC)c3ccccc23)C(=O)N1C [Compound 1002] ({CH2CO}-Y[NMeA]NP[Dap](Oxalyl)L[Hyp]W[Dab][Trp(1-CH2CO2Me)][NMeNle][NMeNle]LCG-NH2; thioether N-14) |
| 3 | CCCC[C@H]1C(=O)N(C)[C@@H](CCCC)C(=O)N[C@@H](CC(C)C)C(=O)N[C@H](C(=O)NCC(N)=O)CSCC(=O)N[C@@H](Cc2ccc(O)cc2)C(=O)N(C)[C@@H](C)C(=O)N[C@@H](CC(N)=O)C(=O)N2CCC[C@H]2C(=O)N[C@@H](CNC(=O)C(=O)Nc2cc(C)on2)C(=O)N[C@@H](CC(C)C)C(=O)N2C[C@H](O)C[C@H]2C(=O)N[C@@H](Cc2c[nH]c3ccccc23)C(=O)N[C@@H](CCNC(=O)C(=O)Nc2cc(C)on2)C(=O)N[C@@H](Cc2cn(CC(=O)OC)c3ccccc23)C(=O)N1C [Compound 2004] ({CH2CO}-Y[NMeA]NP[Dap](X10)L[Hyp]W[Dab](X10)[Trp(1-CH2CO2Me)][NMeNle][NMeNle]LCG-NH2; thioether N-14) |
| 2.7 | CCCC[C@H]1C(=O)N(C)[C@@H](CCCC)C(=O)N[C@@H](CC(C)C)C(=O)N[C@H](C(=O)NCC(N)=O)CSCC(=O)N[C@@H](Cc2ccc(O)cc2)C(=O)N(C)[C@@H](C)C(=O)N[C@@H](CC(N)=O)C(=O)N2CCC[C@H]2C(=O)N[C@@H](CNC(=O)C(N)=O)C(=O)N[C@@H](CC(C)C)C(=O)N2C[C@H](O)C[C@H]2C(=O)N[C@@H](Cc2c[nH]c3ccccc23)C(=O)N[C@@H](CCNC(=O)C(N)=O)C(=O)N[C@@H](Cc2cn(CC(=O)OC)c3ccccc23)C(=O)N1C [Compound 2006] ({CH2CO}-Y[NMeA]NP[Dap](Oxamoyl)L[Hyp]W[Dab](Oxamoyl)[Trp(1-CH2CO2Me)][NMeNle][NMeNle]LCG-NH2; thioether N-14) |
| 2.4 | CCCC[C@H]1C(=O)N(C)[C@@H](CCCC)C(=O)N[C@@H](CC(C)C)C(=O)N[C@H](C(=O)NCC(N)=O)CSCC(=O)N[C@@H](Cc2ccc(O)cc2)C(=O)N(C)[C@@H](C)C(=O)N[C@@H](CC(N)=O)C(=O)N2CCC[C@H]2C(=O)N[C@@H](CNC(=O)C(=O)N(C)C)C(=O)N[C@@H](CC(C)C)C(=O)N2C[C@H](O)C[C@H]2C(=O)N[C@@H](Cc2c[nH]c3ccccc23)C(=O)N[C@@H](CCNC(=O)C(=O)N(C)C)C(=O)N[C@@H](Cc2cn(CC(=O)OC)c3ccccc23)C(=O)N1C [Compound 2005] ({CH2CO}-Y[NMeA]NP[Dap](X7)L[Hyp]W[Dab](X7)[Trp(1-CH2CO2Me)][NMeNle][NMeNle]LCG-NH2; thioether N-14) |
| 1.2 | CCCC[C@H]1C(=O)N(C)[C@@H](CCCC)C(=O)N[C@@H](CC(C)C)C(=O)N[C@H](C(=O)NCC(N)=O)CSCC(=O)N[C@@H](Cc2ccc(O)cc2)C(=O)N(C)[C@@H](C)C(=O)N[C@@H](CC(N)=O)C(=O)N2CCC[C@H]2C(=O)N[C@@H](CNC(=O)C(=O)NCc2ccc(F)cc2)C(=O)N[C@@H](CC(C)C)C(=O)N2C[C@H](O)C[C@H]2C(=O)N[C@@H](Cc2c[nH]c3ccccc23)C(=O)N[C@@H](CCNC(=O)C(=O)NCc2ccc(F)cc2)C(=O)N[C@@H](Cc2cn(CC(=O)OC)c3ccccc23)C(=O)N1C [Compound 2009] ({CH2CO}-Y[NMeA]NP[Dap](X3)L[Hyp]W[Dab](X3)[Trp(1-CH2CO2Me)][NMeNle][NMeNle]LCG-NH2; thioether N-14) |
